# Source: ChEMBL document CHEMBL3421620, “A facile synthesis of novel miconazole analogues and the evaluation of their antifungal activity” (2015)
# Experiments:
# Format in all cases: functional
# Candida albicans [1] = assay: Antifungal activity against Candida albicans Strain 1 by broth microdilution method
# Candida albicans [2] = assay: Antifungal activity against Candida albicans ATCC 10231 by broth microdilution method
# Candida tropicalis = assay: Antifungal activity against Candida tropicalis ATCC 13803 by broth microdilution method
# Cyberlindnera jadinii = assay: Antifungal activity against Candida utilis ATCC 9226 by broth microdilution method; settings: Williopsis jadinii
# Candida albicans [3] = assay: Antifungal activity against Candida albicans Strain 26 by broth microdilution method
# Candida albicans [4] = assay: Antifungal activity against Candida albicans Strain 6 by broth microdilution method
# Candida albicans [5] = assay: Antifungal activity against Candida albicans Strain 2 by broth microdilution method
# Nakaseomyces glabratus = assay: Antifungal activity against Candida glabrata by broth microdilution method
# Yarrowia lipolytica = assay: Antifungal activity against Candida lipolytica by broth microdilution method
# Candida albicans [6] = assay: Antifungal activity against Candida albicans Strain 8 by broth microdilution method
# Candida albicans [7] = assay: Antifungal activity against Candida albicans Strain 20 by broth microdilution method
# Candida albicans [8] = assay: Antifungal activity against Candida albicans Strain 18 by broth microdilution method
# Candida albicans [9] = assay: Antifungal activity against Candida albicans Strain 28 by broth microdilution method
# Candida albicans [10] = assay: Antifungal activity against Candida albicans Strain 24 by broth microdilution method
# Candida albicans [11] = assay: Antifungal activity against Candida albicans Strain 4 by broth microdilution method
# Candida albicans [12] = assay: Antifungal activity against Candida albicans Strain 29 by broth microdilution method
# Candida albicans [13] = assay: Antifungal activity against Candida albicans Strain 9 by broth microdilution method
# Candida albicans [14] = assay: Antifungal activity against Candida albicans Strain 12 by broth microdilution method
# Candida albicans [15] = assay: Antifungal activity against Candida albicans Strain 22 by broth microdilution method
# Candida albicans [16] = assay: Antifungal activity against Candida albicans Strain 13 by broth microdilution method
# Candida albicans [17] = assay: Antifungal activity against Candida albicans Strain 19 by broth microdilution method
# Candida albicans [18] = assay: Antifungal activity against Candida albicans Strain 16 by broth microdilution method
# Candida albicans [19] = assay: Antifungal activity against Candida albicans Strain 14 by broth microdilution method
# Kluyveromyces marxianus = assay: Antifungal activity against Candida pseudotropicalis by broth microdilution method
# Pichia kudriavzevii = assay: Antifungal activity against Candida krusei by broth microdilution method
# Candida albicans [20] = assay: Antifungal activity against Candida albicans Strain 7 by broth microdilution method
# Candida albicans [21] = assay: Antifungal activity against Candida albicans Strain 10 by broth microdilution method
# Candida albicans [22] = assay: Antifungal activity against Candida albicans Strain 27 by broth microdilution method
# Candida albicans [23] = assay: Antifungal activity against Candida albicans Strain 25 by broth microdilution method
# [24] = Antifungal activity against Trichosporon cutaneum ATCC 28592 by broth microdilution method; settings: Cutaneotrichosporon cutaneum
# Candida parapsilosis = assay: Antifungal activity against Candida parapsilosis by broth microdilution method; settings: Lodderomyces parapsilosis
# Candida albicans [25] = assay: Antifungal activity against Candida albicans Strain 3 by broth microdilution method
# Candida albicans [26] = assay: Antifungal activity against Candida albicans Strain 17 by broth microdilution method
# Candida albicans [27] = assay: Antifungal activity against Candida albicans Strain 5 by broth microdilution method
# Aspergillus fumigatus = assay: Antifungal activity against Aspergillus fumigatus 16907 by broth microdilution method
# Mucor hiemalis = assay: Antifungal activity against Mucor hiemalis ATCC 8690 by broth microdilution method
# Candida albicans [28] = assay: Antifungal activity against Candida albicans Strain 21 by broth microdilution method
# Candida albicans [29] = assay: Antifungal activity against Candida albicans Strain 23 by broth microdilution method
# Candida albicans [30] = assay: Antifungal activity against Candida albicans Strain 15 by broth microdilution method
# Candida albicans [31] = assay: Antifungal activity against Candida albicans Strain 11 by broth microdilution method
# Rhizopus arrhizus = assay: Antifungal activity against Rhizopus oryzae ATCC 10329 by broth microdilution method
structure (smiles),measurement,setting,value
COC(=O)c1ccc(COC(Cn2ccnc2)c2ccc(Cl)cc2Cl)cc1 (configuration not stated),MIC,Candida albicans [1],0.12 mg/L
same,MIC,Candida albicans [2],0.06 mg/L
same,MIC,Candida tropicalis,0.12 mg/L
same,MIC,Cyberlindnera jadinii,0.25 mg/L
same,MIC,Candida albicans [3],0.12 mg/L
same,MIC,Candida albicans [4],0.06 mg/L
same,MIC,Candida albicans [5],0.12 mg/L
same,MIC,Nakaseomyces glabratus,0.25 mg/L
same,MIC,Yarrowia lipolytica,0.12 mg/L
same,MIC,Candida albicans [6],0.12 mg/L
same,MIC,Candida albicans [7],0.12 mg/L
same,MIC,Candida albicans [8],0.06 mg/L
same,MIC,Candida albicans [9],0.12 mg/L
same,MIC,Candida albicans [10],0.12 mg/L
same,MIC,Candida albicans [11],0.12 mg/L
same,MIC,Candida albicans [12],0.25 mg/L
same,MIC,Candida albicans [13],0.25 mg/L
same,MIC,Candida albicans [14],0.12 mg/L
same,MIC,Candida albicans [15],0.06 mg/L
same,MIC,Candida albicans [16],0.06 mg/L
same,MIC,Candida albicans [17],0.12 mg/L
same,MIC,Candida albicans [18],0.12 mg/L
same,MIC,Candida albicans [19],0.06 mg/L
same,MIC,Kluyveromyces marxianus,0.5 mg/L
same,MIC,Pichia kudriavzevii,0.12 mg/L
same,MIC,Candida albicans [20],0.12 mg/L
same,MIC,Candida albicans [21],0.12 mg/L
same,MIC,Candida albicans [22],0.06 mg/L
same,MIC,Candida albicans [23],0.12 mg/L
same,MIC,[24],8 mg/L
same,MIC,Candida parapsilosis,0.12 mg/L
same,MIC,Candida albicans [25],0.12 mg/L
same,MIC,Candida albicans [26],0.12 mg/L
same,MIC,Candida albicans [27],0.12 mg/L
same,MIC,Aspergillus fumigatus,4 mg/L
same,MIC,Mucor hiemalis,> 16 mg/L
same,MIC,Candida albicans [28],0.12 mg/L
same,MIC,Candida albicans [29],0.06 mg/L
same,MIC,Candida albicans [30],0.12 mg/L
same,MIC,Candida albicans [31],0.12 mg/L
same,MIC,Rhizopus arrhizus,> 16 mg/L
O=C(O)C(OC(Cn1ccnc1)c1ccc(Cl)cc1Cl)c1ccccc1Cl (configuration not stated),MIC,Candida albicans [1],0.25 mg/L
same,MIC,Candida albicans [2],0.06 mg/L
same,MIC,Candida tropicalis,0.5 mg/L
same,MIC,Cyberlindnera jadinii,0.5 mg/L
same,MIC,Candida albicans [3],0.25 mg/L
same,MIC,Candida albicans [4],0.12 mg/L
same,MIC,Candida albicans [5],0.25 mg/L
same,MIC,Nakaseomyces glabratus,1 mg/L
same,MIC,Yarrowia lipolytica,1 mg/L
same,MIC,Candida albicans [6],0.5 mg/L
same,MIC,Candida albicans [7],0.12 mg/L
same,MIC,Candida albicans [8],0.12 mg/L
same,MIC,Candida albicans [9],0.5 mg/L
same,MIC,Candida albicans [10],0.12 mg/L
same,MIC,Candida albicans [11],0.25 mg/L
same,MIC,Candida albicans [12],0.5 mg/L
same,MIC,Candida albicans [13],0.5 mg/L
same,MIC,Candida albicans [14],0.25 mg/L
same,MIC,Candida albicans [15],0.12 mg/L
same,MIC,Candida albicans [16],0.25 mg/L
same,MIC,Candida albicans [17],0.25 mg/L
same,MIC,Candida albicans [18],0.25 mg/L
same,MIC,Candida albicans [19],0.12 mg/L
same,MIC,Kluyveromyces marxianus,1 mg/L
same,MIC,Pichia kudriavzevii,0.5 mg/L
same,MIC,Candida albicans [20],0.25 mg/L
same,MIC,Candida albicans [21],0.25 mg/L
same,MIC,Candida albicans [22],0.25 mg/L
same,MIC,Candida albicans [23],0.25 mg/L
same,MIC,[24],> 16 mg/L
same,MIC,Candida parapsilosis,1 mg/L
same,MIC,Candida albicans [25],0.12 mg/L
same,MIC,Candida albicans [26],0.25 mg/L
same,MIC,Candida albicans [27],0.25 mg/L
same,MIC,Aspergillus fumigatus,8 mg/L
same,MIC,Mucor hiemalis,> 16 mg/L
same,MIC,Candida albicans [28],0.5 mg/L
same,MIC,Candida albicans [29],0.12 mg/L
same,MIC,Candida albicans [30],0.5 mg/L
same,MIC,Candida albicans [31],0.25 mg/L
same,MIC,Rhizopus arrhizus,> 16 mg/L
